From PubChem BioAssay AID248 (DTP/NCI, 2004)
Toxic doses and inconclusive results are not listed. Rule as the data show it: active = T/C of 150% or more; inactive = T/C below 125%.

Tested on: L1210 leukemia ip in BDF1 mice, survival T/C
Experiment: NCI In Vivo Anticancer Drug Screen. Data for tumor model L1210 Leukemia (intraperitoneal) in B6D2F1 (BDF1) mice
Conditions: endpoint: mean survival time, higher = longer survival
Procedure, shortened: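 Mice bearing the transplanted tumor received compound or vehicle. Survival of the treated group was divided by that of the vehicle-treated control group to give the ratio.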

[1] = dose: 100.0 mg/kg/injection, schedule: Q01DX009 (ip), vehicle: Klucel (hydroxypropylcellulose) (HPC)
[2] = dose: 100.0 mg/kg/injection, schedule: Q04DX003 (ip), vehicle: Klucel (hydroxypropylcellulose) (HPC)
[3] = dose: 200.0 mg/kg/injection, schedule: Q04DX003 (ip), vehicle: Klucel (hydroxypropylcellulose) (HPC)
[4] = dose: 400.0 mg/kg/injection, schedule: Q01DX009 (ip), vehicle: Klucel (hydroxypropylcellulose) (HPC)
[5] = dose: 400.0 mg/kg/injection, schedule: Q04DX003 (ip), vehicle: Klucel (hydroxypropylcellulose) (HPC)
[6] = dose: 100.0 mg/kg/injection, schedule: Q04DX003 (ip), vehicle: saline
[7] = dose: 200.0 mg/kg/injection, schedule: Q04DX003 (ip), vehicle: saline
[8] = dose: 200.0 mg/kg/injection, schedule: Q01DX009 (ip), vehicle: Klucel (hydroxypropylcellulose) (HPC)
[9] = dose: 100.0 mg/kg/injection, schedule: Q01DX009 (ip), vehicle: saline with Tween-80
[10] = dose: 50.0 mg/kg/injection, schedule: Q01DX001 (ip), vehicle: carboxymethylcellulose (CMC)
[11] = dose: 100.0 mg/kg/injection, schedule: Q01DX001 (ip), vehicle: carboxymethylcellulose (CMC)
[12] = dose: 200.0 mg/kg/injection, schedule: Q01DX001 (ip), vehicle: carboxymethylcellulose (CMC)
[13] = dose: 100.0 mg/kg/injection, schedule: Q01DX001 (ip), vehicle: Klucel (hydroxypropylcellulose) (HPC)
[14] = dose: 200.0 mg/kg/injection, schedule: Q01DX001 (ip), vehicle: Klucel (hydroxypropylcellulose) (HPC)
[15] = dose: 400.0 mg/kg/injection, schedule: Q01DX001 (ip), vehicle: Klucel (hydroxypropylcellulose) (HPC)

Measured: T/C

CNc1nc(SC)ncc1C
inactive: dose: 25.0 mg/kg/injection, schedule: Q01DX Z (ip), vehicle: methylcellulose (MC) 92 % of control | dose: 50.0 mg/kg/injection, schedule: Q01DX Z (ip), vehicle: methylcellulose (MC) 89 % of control

Clc1ccc(CSSCc2ccc(Cl)cc2Cl)c(Cl)c1
inactive: dose: 100.0 mg/kg/injection, schedule: Q04DX002 (ip), vehicle: gum acacia 95 % of control | dose: 200.0 mg/kg/injection, schedule: Q04DX002 (ip), vehicle: gum acacia 116 % of control | dose: 400.0 mg/kg/injection, schedule: Q04DX002 (ip), vehicle: gum acacia 100 % of control

CC(=O)OCc1c[n+]([O-])c(C)c(OC(C)=O)c1COC(C)=O
inactive: dose: 25.0 mg/kg/injection, schedule: Q04DX003 (ip), vehicle: saline 101 % of control | dose: 50.0 mg/kg/injection, schedule: Q04DX003 (ip), vehicle: saline 101 % of control

Nc1cc(Cl)cc2c1-c1c(Cl)cc(Cl)cc1C2
inactive: [1] 102 % of control | [2] 96 % of control | [3] 104 % of control | [4] 102 % of control | [5] 104 % of control

CCC(NC(=O)CCl)C(=O)O (stereo unspecified)
inactive: dose: 100.0 mg/kg/injection, schedule: Q04DX002 (ip), vehicle: saline 120 % of control | dose: 200.0 mg/kg/injection, schedule: Q04DX002 (ip), vehicle: saline 103 % of control

BrC1(Br)C23CC=CCC12CCCC3 (stereo unspecified)
inactive: [6] 95 % of control | [7] 100 % of control | dose: 400.0 mg/kg/injection, schedule: Q04DX003 (ip), vehicle: saline 105 % of control

Cc1cc(C)c2c(c1C)OC(C)(C)C=C2
inactive: [1] 98 % of control | [2] 98 % of control | [8] 100 % of control | [3] 107 % of control | [4] 97 % of control | [5] 100 % of control

CCCCCCCCCCCCCCCCCCSC(C)(C)SCCCCCCCCCCCCCCCCCC
inactive: dose: 100.0 mg/kg/injection, schedule: Q04DX002 (ip), vehicle: saline with Tween-80 106 % of control | dose: 200.0 mg/kg/injection, schedule: Q04DX002 (ip), vehicle: saline with Tween-80 89 % of control | dose: 400.0 mg/kg/injection, schedule: Q04DX002 (ip), vehicle: saline with Tween-80 92 % of control

CC(C)(C)c1cc([N+](=O)[O-])cc(C(C)(C)C)c1O
inactive: dose: 50.0 mg/kg/injection, schedule: Q01DX009 (ip), vehicle: saline with Tween-80 102 % of control | dose: 100.0 mg/kg/injection, schedule: Q01DX001 (ip), vehicle: saline 96 % of control | [9] 98 % of control | [6] 101 % of control | dose: 200.0 mg/kg/injection, schedule: Q01DX001 (ip), vehicle: saline 94 % of control | [7] 93 % of control | dose: 400.0 mg/kg/injection, schedule: Q01DX001 (ip), vehicle: saline 93 % of control

Cc1ccc(NC(=O)Oc2ccc(-c3ccccc3)cc2)cc1NC(=O)Oc1ccc(-c2ccccc2)cc1
inactive: [9] 91 % of control | dose: 400.0 mg/kg/injection, schedule: Q01DX009 (ip), vehicle: saline with Tween-80 96 % of control

O=[N+]([O-])c1ccc2conc2c1
inactive: [10] 94 % of control | [11] 97 % of control | [12] 92 % of control

CCCCCCCc1ccc(C(C)=O)cc1
inactive: dose: 100.0 mg/kg/injection, schedule: Q04DX003 (ip), vehicle: saline with Tween-80 100 % of control | dose: 132.0 mg/kg/injection, schedule: Q04DX003 (ip), vehicle: saline with Tween-80 97 % of control | dose: 200.0 mg/kg/injection, schedule: Q04DX003 (ip), vehicle: saline with Tween-80 101 % of control | dose: 300.0 mg/kg/injection, schedule: Q04DX003 (ip), vehicle: saline with Tween-80 93 % of control | dose: 400.0 mg/kg/injection, schedule: Q04DX003 (ip), vehicle: saline with Tween-80 108 % of control

O=C=Nc1cccc(S(=O)(=O)F)c1
inactive: [10] 105 % of control | [11] 103 % of control | [12] 105 % of control | dose: 400.0 mg/kg/injection, schedule: Q01DX001 (ip), vehicle: carboxymethylcellulose (CMC) 97 % of control

Cc1ccc2c(C)c(C)c(=O)n(C)c2c1
inactive: dose: 100.0 mg/kg/injection, schedule: Q01DX001 (ip), vehicle: other 104 % of control | dose: 200.0 mg/kg/injection, schedule: Q01DX001 (ip), vehicle: other 98 % of control | dose: 400.0 mg/kg/injection, schedule: Q01DX001 (ip), vehicle: other 95 % of control

CCc1nc(N)nc(N)c1-c1ccc(N(CCCl)CCCl)cc1
inactive: dose: 13.0 mg/kg/injection, schedule: Q01DX Z (ip), vehicle: methylcellulose (MC) 108 % of control | dose: 20.0 mg/kg/injection, schedule: Q01DX Z (ip), vehicle: methylcellulose (MC) 103 % of control | dose: 30.0 mg/kg/injection, schedule: Q01DX Z (ip), vehicle: methylcellulose (MC) 108 % of control | dose: 45.0 mg/kg/injection, schedule: Q01DX Z (ip), vehicle: methylcellulose (MC) 113 % of control

COc1ccc(-c2cnc(=S)[nH]c2N)cc1
inactive: [13] 116 % of control | [14] 121 % of control | [15] 119 % of control

C=CC(C)(CC/C=C(\C)CCC=C(C)C)OC(=O)NC(=O)C(Cl)(Cl)Cl (stereo unspecified)
inactive: dose: 50.0 mg/kg/injection, schedule: Q01DX009 (ip), vehicle: Klucel (hydroxypropylcellulose) (HPC) 103 % of control | [13] 111 % of control | [1] 100 % of control | [14] 101 % of control | [8] 97 % of control | [15] 105 % of control

C[C@H]1CN1C1=CC(=O)C(N2C[C@@H]2C)=CC1=O
active: dose: 5.0 mg/kg/injection, schedule: Q01DX009 (ip), vehicle: other 166 % of control
inactive: dose: 0.88 mg/kg/injection, schedule: Q04DX003 (ip), vehicle: other 106 % of control | dose: 1.0 mg/kg/injection, schedule: Q01DX001 (ip), vehicle: other 108 % of control | dose: 1.56 mg/kg/injection, schedule: Q01DX009 (ip), vehicle: other 120 % of control | dose: 2.0 mg/kg/injection, schedule: Q01DX001 (ip), vehicle: other 105 % of control | dose: 2.0 mg/kg/injection, schedule: Q04DX003 (ip), vehicle: Klucel (hydroxypropylcellulose) (HPC) 108 % of control | dose: 2.0 mg/kg/injection, schedule: Q04DX003 (ip), vehicle: other 120 % of control | dose: 4.0 mg/kg/injection, schedule: Q04DX003 (ip), vehicle: Klucel (hydroxypropylcellulose) (HPC) 117 % of control | dose: 8.0 mg/kg/injection, schedule: Q04DX003 (ip), vehicle: Klucel (hydroxypropylcellulose) (HPC) 124 % of control | dose: 9.0 mg/kg/injection, schedule: Q04DX003 (ip), vehicle: saline with Tween-80 95 % of control | dose: 9.5 mg/kg/injection, schedule: Q01DX001 (ip), vehicle: other 114 % of control | dose: 12.0 mg/kg/injection, schedule: Q01DX009 (ip), vehicle: other 92 % of control | dose: 25.0 mg/kg/injection, schedule: Q04DX003 (ip), vehicle: saline with Tween-80 105 % of control

S=c1[nH]c2ccccc2o1
inactive: [9] 93 % of control | dose: 100.0 mg/kg/injection, schedule: Q04DX003 (ip), vehicle: other 101 % of control | dose: 200.0 mg/kg/injection, schedule: Q01DX009 (ip), vehicle: saline with Tween-80 100 % of control | dose: 200.0 mg/kg/injection, schedule: Q04DX003 (ip), vehicle: other 93 % of control | dose: 400.0 mg/kg/injection, schedule: Q04DX003 (ip), vehicle: other 96 % of control

Nc1nc(N)nc(-c2ccc(NC(=O)c3ccccc3[N+](=O)[O-])cc2)n1
inactive: dose: 50.0 mg/kg/injection, schedule: Q04DX003 (ip), vehicle: Klucel (hydroxypropylcellulose) (HPC) 100 % of control | [13] 97 % of control | [2] 106 % of control | [14] 95 % of control | [3] 103 % of control

Cc1ccc(S(=O)(=O)OCC2OC(n3cnc4c(N)ncnc43)C(OS(=O)(=O)c3ccc(C)cc3)C2N=[N+]=[N-])cc1 (stereo unspecified)
inactive: dose: 100.0 mg/kg/injection, schedule: Q01DX005 (ip), vehicle: saline 106 % of control | dose: 200.0 mg/kg/injection, schedule: Q01DX005 (ip), vehicle: saline 92 % of control

Cc1cccc(C2=CCCCC2)c1
inactive: [10] 96 % of control | [11] 102 % of control | [12] 96 % of control
